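Test compounds were applied to cells in 96-well plates for 48 hours at 5 doses. GI50 marks 50% less growth. TGI is the concentration that stops growth completely.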
Legend:
Test in all cases: NCI-60 cell line screen, 48 h
HCT-116 colon = tested on: HCT-116 colon
OVCAR-8 ovarian = tested on: OVCAR-8 ovarian
HL-60(TB) leukemia = tested on: HL-60(TB) leukemia
K-562 leukemia = tested on: K-562 leukemia
M14 melanoma = tested on: M14 melanoma
SR leukemia = tested on: SR leukemia
HT29 colon = tested on: HT29 colon
MOLT-4 leukemia = tested on: MOLT-4 leukemia
NCI/ADR-RES ovarian = tested on: NCI/ADR-RES ovarian
CCRF-CEM leukemia = tested on: CCRF-CEM leukemia
ACHN renal = tested on: ACHN renal
CAKI-1 renal = tested on: CAKI-1 renal
SNB-19 CNS = tested on: SNB-19 CNS
MCF7 breast = tested on: MCF7 breast
SK-OV-3 ovarian = tested on: SK-OV-3 ovarian
PC-3 prostate = tested on: PC-3 prostate
SF-268 CNS = tested on: SF-268 CNS
KM12 colon = tested on: KM12 colon
SK-MEL-5 melanoma = tested on: SK-MEL-5 melanoma
A549 NSCLC = tested on: A549 NSCLC
MDA-MB-435 = tested on: MDA-MB-435
OVCAR-5 ovarian = tested on: OVCAR-5 ovarian
HS 578T breast = tested on: HS 578T breast
UACC-257 melanoma = tested on: UACC-257 melanoma
NCI-H460 lung = tested on: NCI-H460 lung
HOP-62 NSCLC = tested on: HOP-62 NSCLC
UO-31 renal = tested on: UO-31 renal
SF-295 CNS = tested on: SF-295 CNS
LOX IMVI melanoma = tested on: LOX IMVI melanoma
IGROV1 ovarian = tested on: IGROV1 ovarian
SK-MEL-28 melanoma = tested on: SK-MEL-28 melanoma
SN12C renal = tested on: SN12C renal
NCI-H522 lung = tested on: NCI-H522 lung
MDA-MB-231 breast = tested on: MDA-MB-231 breast
UACC-62 melanoma = tested on: UACC-62 melanoma
OVCAR-3 ovarian = tested on: OVCAR-3 ovarian
SK-MEL-2 melanoma = tested on: SK-MEL-2 melanoma
EKVX NSCLC = tested on: EKVX NSCLC
U251 CNS = tested on: U251 CNS
786-0 renal = tested on: 786-0 renal
DU-145 prostate = tested on: DU-145 prostate
TK-10 renal = tested on: TK-10 renal
SF-539 CNS = tested on: SF-539 CNS
HOP-92 NSCLC = tested on: HOP-92 NSCLC
NCI-H23 lung = tested on: NCI-H23 lung
RXF 393 renal = tested on: RXF 393 renal
HCC-2998 colon = tested on: HCC-2998 colon
T-47D breast = tested on: T-47D breast
NCI-H226 lung = tested on: NCI-H226 lung
COLO 205 colon = tested on: COLO 205 colon

SMILES: Cc1ccc(C)c(/C=C2\CN(C(=O)OC(C)(C)C)C/C(=C\c3cc(C)ccc3C)C2=O)c1
- GI50 (HCT-116 colon): 1.43 µM
- TGI (HCT-116 colon): 5.34 µM
- GI50 (OVCAR-8 ovarian): 3.56 µM
- TGI (OVCAR-8 ovarian): > 100 µM
- GI50 (HL-60(TB) leukemia): 2.52 µM
- TGI (HL-60(TB) leukemia): > 100 µM
- GI50 (K-562 leukemia): 2.94 µM
- TGI (K-562 leukemia): > 100 µM
- GI50 (M14 melanoma): 2.99 µM
- TGI (M14 melanoma): > 100 µM
- GI50 (SR leukemia): 2.53 µM
- TGI (SR leukemia): > 100 µM
- GI50 (HT29 colon): 3.26 µM
- TGI (HT29 colon): > 100 µM
- GI50 (MOLT-4 leukemia): 2.78 µM
- TGI (MOLT-4 leukemia): > 100 µM
- GI50 (NCI/ADR-RES ovarian): 3.48 µM
- TGI (NCI/ADR-RES ovarian): > 100 µM
- GI50 (CCRF-CEM leukemia): 2.49 µM
- TGI (CCRF-CEM leukemia): > 100 µM
- GI50 (ACHN renal): 3.07 µM
- TGI (ACHN renal): > 100 µM
- GI50 (CAKI-1 renal): 2.89 µM
- TGI (CAKI-1 renal): > 100 µM
- GI50 (SNB-19 CNS): 2.68 µM
- TGI (SNB-19 CNS): > 100 µM
- GI50 (MCF7 breast): 1.94 µM
- TGI (MCF7 breast): > 100 µM
- GI50 (SK-OV-3 ovarian): > 100 µM
- TGI (SK-OV-3 ovarian): > 100 µM
- GI50 (PC-3 prostate): 2.71 µM
- TGI (PC-3 prostate): > 100 µM
- GI50 (SF-268 CNS): 2.76 µM
- TGI (SF-268 CNS): > 100 µM

SMILES: COc1cc(/C=C2\C[C@H]3[C@@H]4CC=C5C[C@@H](O)CC[C@]5(C)[C@H]4CC[C@]3(C)[C@H]2O)ccc1OCCCn1ccnc1
- GI50 (KM12 colon): 1.82 µM
- TGI (KM12 colon): 7.2 µM
- GI50 (SK-MEL-5 melanoma): 4.15 µM
- TGI (SK-MEL-5 melanoma): 12.4 µM
- GI50 (A549 NSCLC): 1.18 µM
- TGI (A549 NSCLC): 2.63 µM
- GI50 (MDA-MB-435): 3.52 µM
- TGI (MDA-MB-435): 12.6 µM
- GI50 (OVCAR-5 ovarian): 7.14 µM
- TGI (OVCAR-5 ovarian): 23.3 µM
- GI50 (HS 578T breast): 1.18 µM
- TGI (HS 578T breast): 4.24 µM
- GI50 (UACC-257 melanoma): 6.3 µM
- TGI (UACC-257 melanoma): 15.4 µM
- GI50 (OVCAR-8 ovarian): 2.62 µM
- TGI (OVCAR-8 ovarian): 16.1 µM
- GI50 (NCI-H460 lung): 1.52 µM
- TGI (NCI-H460 lung): 5.11 µM
- GI50 (HOP-62 NSCLC): 3.45 µM
- TGI (HOP-62 NSCLC): 20 µM
- GI50 (HL-60(TB) leukemia): 2.79 µM
- TGI (HL-60(TB) leukemia): 15.9 µM
- GI50 (UO-31 renal): 2.12 µM
- TGI (UO-31 renal): > 50 µM
- GI50 (SF-295 CNS): 1.55 µM
- TGI (SF-295 CNS): 6.32 µM
- GI50 (LOX IMVI melanoma): 0.988 µM
- TGI (LOX IMVI melanoma): 2.01 µM
- GI50 (IGROV1 ovarian): 12.5 µM
- TGI (IGROV1 ovarian): > 50 µM
- GI50 (SK-MEL-28 melanoma): 10.2 µM
- TGI (SK-MEL-28 melanoma): > 50 µM
- GI50 (K-562 leukemia): 2.69 µM
- TGI (K-562 leukemia): > 50 µM
- GI50 (SN12C renal): 2.73 µM
- TGI (SN12C renal): 13.2 µM
- GI50 (NCI-H522 lung): 22.3 µM
- TGI (NCI-H522 lung): > 50 µM
- GI50 (MDA-MB-231 breast): 0.863 µM
- TGI (MDA-MB-231 breast): 1.74 µM
- GI50 (UACC-62 melanoma): 1.59 µM
- TGI (UACC-62 melanoma): 6.65 µM
- GI50 (OVCAR-3 ovarian): 0.946 µM
- TGI (OVCAR-3 ovarian): 2.9 µM
- GI50 (SK-MEL-2 melanoma): 32.7 µM
- TGI (SK-MEL-2 melanoma): > 50 µM
- GI50 (HT29 colon): 2.68 µM
- TGI (HT29 colon): > 50 µM
- GI50 (MOLT-4 leukemia): > 50 µM
- TGI (MOLT-4 leukemia): > 50 µM
- GI50 (EKVX NSCLC): 6.06 µM
- TGI (EKVX NSCLC): > 50 µM
- GI50 (U251 CNS): 0.923 µM
- TGI (U251 CNS): 1.72 µM
- GI50 (786-0 renal): 1.23 µM
- TGI (786-0 renal): 3.09 µM
- GI50 (DU-145 prostate): 1.92 µM
- TGI (DU-145 prostate): 7.45 µM
- GI50 (TK-10 renal): 0.738 µM
- TGI (TK-10 renal): 2.09 µM
- GI50 (NCI/ADR-RES ovarian): 13.6 µM
- TGI (NCI/ADR-RES ovarian): > 50 µM
- GI50 (SF-539 CNS): 1.05 µM
- TGI (SF-539 CNS): 2.09 µM
- GI50 (ACHN renal): 1.28 µM
- TGI (ACHN renal): 3.34 µM
- GI50 (CAKI-1 renal): 1.81 µM
- TGI (CAKI-1 renal): 7.86 µM
- GI50 (HOP-92 NSCLC): 4.44 µM
- TGI (HOP-92 NSCLC): 12.5 µM
- GI50 (NCI-H23 lung): 9.31 µM
- TGI (NCI-H23 lung): 40.8 µM
- GI50 (SNB-19 CNS): 12.4 µM
- TGI (SNB-19 CNS): > 50 µM
- GI50 (RXF 393 renal): 2.52 µM
- TGI (RXF 393 renal): 43.4 µM
- GI50 (MCF7 breast): 2.63 µM
- TGI (MCF7 breast): 27.7 µM
- GI50 (HCC-2998 colon): 8.22 µM
- TGI (HCC-2998 colon): 16.1 µM
- GI50 (PC-3 prostate): 1.45 µM
- TGI (PC-3 prostate): 5.03 µM
- GI50 (T-47D breast): 17.7 µM
- TGI (T-47D breast): > 50 µM
- GI50 (SF-268 CNS): 3.82 µM
- TGI (SF-268 CNS): 19.2 µM
- GI50 (NCI-H226 lung): 4.09 µM
- TGI (NCI-H226 lung): 15.2 µM
- GI50 (COLO 205 colon): 8.74 µM
- TGI (COLO 205 colon): > 50 µM

Source: PubChem BioAssay (NCI)
